# Experimental data taken from patent US9028855B2, “Plant additives and uses thereof to modulate the synthesis of membrane glycerolipids in planta” (Commissariat a l'Energie Atomique et aux Energies …, priority 2009, dated 2015).
# “Also recorded” adds a separate entry of the source.
# Assays:
# A. thaliana = assay: Root growth (primary root) of plants on high phosphate medium supplied with compound; assay type: in vivo; details: expressed as a percentage having regard to a control; +P control 100, −P 20
# From the text: In response to phosphate starvation, the primary root growth is inhibited (Svistoonoff et al., 2007).
# phopholipase Dz2 = assay: PLDz::GUS, follow-up of the expression of the gene encoding phospholipase Dz2 (GUS staining); assay type: in vivo, A. thaliana; details: summary over PLDz::GUS and MGD3::GUS; specific = without impact on growth or PHT1;4
# Experimental: pPLDZ2:GUS-GFP cell line is as described by Cruz-Ramirez et al. (Cruz-Ramirez et al., 2006), and expressed a GUS-GFP fusion under the control of the pldz2 promoter. […] Plants were examined for GUS activity by dipping the samples in a GUS staining solution (50 mM sodium phosphate buffer pH 7.0; 0.01% Triton X-100, 1 mM K3Fe(CN)6, 1 mM K4Fe(CN)6, 1 mg/ml 5-dromo-4-chloro-3-indolyl (3-D-GLUCURONIDE (X-Gluc A) and incubated at 37° C. over-night. After staining, the plants were fixed 2 hours in 50 mM sodium phosphate buffer pH 7.0; 1% glutaraldehyde; 4% formaldehyde. In response to phosphate starvation, the lipid metabolism is modified (Benning and Ohta, 2005). Plants preferentially synthesize sulpho- and galacto-lipids instead of phospholipids. Several enzymes are involved in this remobilisation.
# wild type seedlings = assay: Anthocyanins content (spectrophotometric); assay type: in vivo, A. thaliana; set-up: key to Antho: anthocyanin content as A530 - 2.2*A652; details: accumulation of anthocyanes; +P control 46, −P 1008
# Experimental: Anthocyanins were extracted with propanol:HCl:H2O (81:1:18) for 5 min at room temperature and 3 min at 100° C. Samples are centrifuged for 10 min at 4° C. Supernatants were collected and absorption measured at 530 nm and […]. Anthocyanin content was calculated as A530-2.2A652 (Lange et al., 1971).
Compound,Root Growth (A. thaliana),lipid metabolism: induction of PLDζ2 and/or MGD3 genes (in words) (phopholipase Dz2),Antho (wild type seedlings)
CC(Nc1ccc(Br)cc1)=C1C(=O)CC(C)(C)CC1=O [#21],93 % of control,impact specifically the lipid metabolism inducing PLD[…]2 and MGD3,146
O=C1CCCC(=O)C1=CNc1ccccc1 [#23],100 % of control,specificity in lipids remodeling,42
CC1CC(=O)C(=CNc2ccccc2)C(=O)C1 (stereo not drawn) [#29],85 % of control,impact specifically the lipid metabolism inducing PLD[…]2 and MGD3; also recorded: specificity in lipids remodeling,146
CC1(C)CC(=O)C(=CNc2ccc3c(c2)OCO3)C(=O)C1 [#30],65 % of control,impact specifically the lipid metabolism inducing PLD[…]2 and MGD3; also recorded: specificity in lipids remodeling,189
CC1(C)CC(=O)C(=C(S)Nc2ccccc2)C(=O)C1 [#31],89 % of control,impact specifically the lipid metabolism inducing PLD[…]2 and MGD3; also recorded: specificity in lipids remodeling,62
CC1(C)CC(=O)C(=CNc2ccccc2N)C(=O)C1 [#40],85 % of control,specificity in lipids remodeling,65
COc1cccc(NC=C2C(=O)CCCC2=O)c1 [#41],65 % of control,impact specifically the lipid metabolism inducing PLD[…]2 and MGD3; also recorded: specificity in lipids remodeling,111
CC1(C)CC(=O)C(=CNc2ccc(N)cc2)C(=O)C1 [#42],68 % of control,impact specifically the lipid metabolism inducing PLD[…]2 and MGD3; also recorded: specificity in lipids remodeling,226
O=C1CCCC(=O)C1=CNc1ccc(Br)cc1 [#45],67 % of control,impact specifically the lipid metabolism inducing PLD[…]2 and MGD3; also recorded: specificity in lipids remodeling,106
COc1ccc(NC=C2C(=O)CCCC2=O)cc1 [#46],70 % of control,specificity in lipids remodeling,167
